What was measured:
mouse = experiment: Single oral dose toxicity in mouse; type: in vivo; settings: oral, 2,000 mg/kg body weight as a single dose
Description: For example, in the case of oral administration, there is no fatal case when agarobiose, agarotetraose, agarohexaose, agarooctaose, a mixture thereof, or DGE is administered to a mouse in an amount of 2,000 mg/kg body weight as a single dose. Further, there is no fatal case when the above-described active ingredient is administered orally as a single dose of 2,000 mg/kg body weight to a rat.

[1] = system: Glutathione S-transferase (GST); experiment: Enhancing effect on glutathione S-transferase (GST) activity in Hepa1c1c7 cells; type: cell-based; settings: for GST activity (−fold): relative to water control
Description: Hepa1c1c7 cells (ATCC CRL-2026) were suspended in a Dulbecco-modified Eagle medium (manufactured by Sigma) containing 10% of fetal bovine serum (manufactured by MP Biomedicals Co.) and 1% of penicillin-streptomycin (manufactured by Nacalai Tesque, Inc.) at 4×10^5 cells/ml. To each well of a 96 well-microtiter plate, 0.2 ml of the cell suspension was added, and cultured at 37° C. overnight in the presence of 5% carbon dioxide gas. Then, the medium in the wells was replaced with a Dulbecco-modified Eagle medium. To each well, 0.4 μl of a solution of a test substance in water was added and then cultured for 24 hours. The agarobiose obtained in Preparation Example 1 and a commercially available agaro-oligosaccharide (trade name: Agaoligo, manufactured by Takara Bio Inc., containing agarobiose, agarotetraose, agarohexaose and agarooctaose in 20 to 25% each) were used as test substances. For a negative control, water was added in place of a test substance. After completion of the culture, the medium was removed and the cells were washed with a phosphate buffer. Then, 0.1 ml of a cell-lysis solution (10 mM Tris-HCl (pH 7.4), 38.5 mM KCl, and 1 mM EDTA, 1% NP-40) was added and incubated at 37° C. for 10 minutes to obtain an enzyme solution. To 25 μl of the enzyme solution, 155 μl of a reaction solution (0.13 M potassium phosphate buffer solution (pH 6.5), 1.3 mM glutathione) was added. Immediately before measurement, 20 al of 10 mM of CDNB (2,4-dinitrochlorobenzene, manufactured by TOKYO CHEMICAL INDUSTRY CO., LTD.) as a reaction substrate was added, and a change in an absorbance at 340 nm was measured. This activity assay was performed in triplicate. The protein content was measured by using a 50-fold dilution of the enzyme solution with a phosphate buffer and MicroBCA protein assay kit (manufactured by PIERCE Co.). The GST activity was expressed as a GST activity relative to the control and calculated by the following formula.
GST activity=(Maximum rate coefficient in test substance-added section/Protein content in test substance-added section)/(Maximum rate coefficient in water-added section/Protein content in water-added section)
An effect on a GST activity caused by using DGE obtained in Preparation Example 2 was determined in accordance with Example 1. Each measurement was repeated three times. The GST activity was expressed as a GST activity relative to the control and calculated by the same formula as in Example 1.

Quinone Reductase (QR) = experiment: Quinone reductase (QR) activity in Hepa1c1c7 cells; type: cell-based; settings: for QR activity (−fold) / QR activity (fold vs water control): relative to water control; for QR activity (fold vs water control): Table 3 (QR activity test), 24 hours
Description: A QR activity was measured by a partially modified method from a method described in Hans J. Prochaska et al., Analytical Biochemistry 169, 328-336 (1988). Hepa1c1c7 cells were suspended in a Dulbecco-modified Eagle medium containing 10% of fetal bovine serum and 1% of penicillin-streptomycin at 4×10^5 cells/ml. To each well of a 96 well-microtiter plate, 0.2 ml of the cell suspension was added, and cultured at 37° C. overnight in the presence of 5% carbon dioxide gas. Then, the medium in the wells was replaced with a Dulbecco-modified Eagle medium. To each well, 0.4 μl of a solution of a test substance in water was added and then cultured for 24 hours. The agarobiose obtained in Preparation Example 1 and a commercially available agaro-oligosaccharide (trade name: Agaoligo) were used as test substances. For a negative control, water was added in place of a test substance. After completion of the culture, the medium was removed and the cells were washed with a phosphate buffer. Then, 0.1 ml of a cell-lysis solution (2 mM EDTA (pH 7.8), 1% NP-40) was added and incubated at 37° C. for 10 minutes to obtain an enzyme solution. To 25 it of the enzyme solution, 100 it of a reaction solution (25 mM Tris-HCl (pH 7.4), 0.67% BSA, 0.01% Tween 20, 5 μM FAD, 1 mM G6P, 30 μM NADP, 0.3 mg/ml MTT, 2 U/ml G6PDH (manufactured by Sigma)) was added. At this time, a substrate was added or not added. In the case where a substrate was added, menadion (manufactured by Sigma) was further added at a final concentration of 50 μM into the reaction solution. After incubation at room temperature for 30 minutes, 75 μl of 2N Na2CO3 was added to terminate the reaction, and an absorbanc at 590 nm was measured. This activity assay was performed in triplicate. The protein content was measured by using a 50-fold dilution of the enzyme solution with a phosphate buffer and MicroBCA protein assay kit. The QR activity was expressed as a QR activity relative to the control and calculated by the following formula.
QR activity={[(Absorbance in test substance-added section in the presence of substrate)−(Absorbance in test substance-added section in the absence of substrate)]/(Protein content in test substance-added section)}/{[(Absorbance in water-added section in the presence of substrate)−(Absorbance in water-added section in the absence of substrate)]/(Protein content in water-added section)}

[2] = system: Intracellular Glutathione (GSH); experiment: Enhancing effect on intracellular glutathione (GSH) content in Hepa1c1c7 cells; type: cell-based; settings: for GSH content (−fold): 24 hours, relative to water control
Description: […] was measured by a partially modified method from a method described in Clarissa Gerhauser et al., Cancer Research 57, 272-278 (1997). Hepa1c1c7 cells were suspended in a Dulbecco-modified Eagle medium containing 10% of fetal bovine serum and 1% of penicillin-streptomycin at 4×10^5 cells/ml. To each well of a 96 well-microtiter plate, 0.2 ml of the cell suspension was added, and cultured at 37° C. overnight in the presence of 5% carbon dioxide gas. Then, the medium in the wells was replaced with a Dulbecco-modified Eagle medium. To each well, 0.4 μl of a solution of a test substance in water was added and then cultured for 24 hours. The agarobiose obtained in Preparation Example 1 and a commercially available agaro-oligosaccharide (trade name: Agaoligo) were used as test substances. For a negative control, water was added in place of a test substance. After completion of the culture, the medium was removed and the cells were washed with a phosphate buffer. The solution was removed, and freeze-thaw of the cells was repeated three times. Thereto was added 0.1 ml of buffer A ([…] sodium phosphate buffer (pH 7.5), 6.3 mM EDTA) to obtain a cell lysate. To 25 it of the cell lysate, 100 al of a reaction solution (25 mM Tris-HCl (pH 7.4), 1 mM G6P, 30 μM NADP, 2 U/ml G6PDH, 0.25 U/ml glutathione reductase (manufactured by Sigma), 0.6 mM DTNB) was added. After incubation at room temperature for 5 minutes, an absorbance at 405 nm was measured. This activity assay was performed in triplicate. At the same time, as a standard, serial 2-fold dilutions of 2 to 200 al of […] were used in place of the cell lysate. The protein content was measured by using a 50-fold dilution of the cell lysate with a phosphate buffer and MicroBCA protein assay kit. The GSH content was expressed as a GSH content relative to the control and calculated by the following formula.
GSH content=[(GSH content in test substance-added section)/(Protein content in test substance-added section)]/[(GSH content in water-added section)/(Protein content in water-added section)]

HL-60 cell = experiment: Cancer cell growth suppressing activity using HL-60 cell; type: cell-based; settings: HPLC fraction at retention time 4.05 to 4.16 minutes, found to be DGE
Description: The neutralized product was subjected to the following normal phase HPLC. Each peak was collected, dried under reduced pressure and then dissolved in water. A cancer cell growth suppressing activity of each fraction was measured using a HL-60 cell.

[3] = 24 hours, final concentration 100 μM
[4] = 24 hours, final concentration 200 μM

Q: How did the “Fatal cases after oral administration” value (mouse) turn out when `OC[C@H]1O[C@@H](O[C@H]2[C@H]3OC[C@@H]2O[C@@H](O[C@H]2[C@@H](O)[C@@H](CO)O[C@@H](O[C@H]4[C@H]5OC[C@@H]4O[C@@H](O[C@H]4[C@@H](O)[C@@H](CO)O[C@@H](O[C@H]6[C@H]7OC[C@@H]6OC(O)[C@H]7O)[C@@H]4O)[C@H]5O)[C@@H]2O)[C@H]3O)[C@H](O)[C@@H](O)[C@H]1O` (mixture of isomers) [agarohexaose] was run?
A: no fatal case

Q: agarooctaose was tested. Which “Fatal cases after oral administration” value (mouse) did it give?
A: no fatal case

Q: Which “Fatal cases after oral administration” value (mouse) does the source give for `OC[C@H]1O[C@@H](O[C@H]2[C@H]3OC[C@@H]2O[C@@H](O[C@H]2[C@@H](O)[C@@H](CO)O[C@@H](O[C@H]4[C@H]5OC[C@@H]4OC(O)[C@H]5O)[C@@H]2O)[C@H]3O)[C@H](O)[C@@H](O)[C@H]1O` (some centres unmarked) [agarotetraose] here?
A: no fatal case

Q: Which “Effect on GST activity (in words)” value [1] does the source give for `OC[C@H]1O[C@@H](O)[C@H](O)[C@@H](O[C@@H]2O[C@H]3CO[C@@H]([C@@H]2O)[C@@H]3O[C@@H]2O[C@H](CO)[C@H](O)[C@H](O[C@@H]3O[C@H]4CO[C@@H]([C@@H]3O)[C@@H]4O[C@@H]3O[C@H](CO)[C@H](O)[C@H](O[C@@H]4O[C@H]5CO[C@@H]([C@@H]4O)[C@@H]5O)[C@H]3O)[C@H]2O)[C@H]1O` [Neoogarohexaose, neoagarohexaose, reference compound] here?
A: did not result in a significant increase

Q: And the “GST activity (−fold)” value [1, 3]?
A: 1.1 fold

Q: What about the “GST activity (−fold)” value [1, 4] of the same compound?
A: 1.1 fold

Q: And the “Effect on QR activity (in words)” value (Quinone Reductase (QR))?
A: did not result in a significant increase

Q: What about the “QR activity (−fold)” value (Quinone Reductase (QR); final concentration 100 μM) of the same compound?
A: 1.0 fold

Q: And the “QR activity (−fold)” value (Quinone Reductase (QR); final concentration 200 μM)?
A: 1.1 fold

Q: How did the “Effect on GST activity (in words)” value [1] turn out when `OC[C@H]1O[C@@H](O[C@H]2[C@H]3OC[C@@H]2OC(O)[C@H]3O)[C@H](O)[C@@H](O)[C@H]1O` (mixture of isomers) [Agarobiose, agarobiose] was run?
A: significant increase

Q: What about the “GST activity (−fold)” value ([1]; 24 hours, final concentration 25 μM) of the same compound?
A: 1.4 fold

Q: What about the “GST activity (−fold)” value ([1]; 24 hours, final concentration 50 μM) of the same compound?
A: 1.5 fold

Q: What about the “GST activity (−fold)” value [1, 3] of the same compound?
A: 1.9 fold

Q: What about the “GST activity (−fold)” value [1, 4] of the same compound?
A: 1.9 fold

Q: What about the “Effect on QR activity (in words)” value (Quinone Reductase (QR)) of the same compound?
A: significant increase

Q: And the “QR activity (fold vs water control)” value (Quinone Reductase (QR); final concentration 25 μM)?
A: 1.4

Q: And the “QR activity (fold vs water control)” value (Quinone Reductase (QR); final concentration 50 μM)?
A: 1.4

Q: What about the “QR activity (fold vs water control)” value (Quinone Reductase (QR); final concentration 100 μM) of the same compound?
A: 1.8

Q: What about the “QR activity (fold vs water control)” value (Quinone Reductase (QR); final concentration 200 μM) of the same compound?
A: 2.2

Q: What about the “Effect on GSH content (in words)” value [2] of the same compound?
A: significant increase

Q: And the “GSH content (−fold)” value ([2]; final concentration 100 μM)?
A: 1.3 fold

Q: And the “GSH content (−fold)” value ([2]; final concentration 200 μM)?
A: 1.9 fold

Q: What about the “Fatal cases after oral administration” value (mouse) of the same compound?
A: no fatal case

Q: With `O=C1C=CC(CO)OC1O` [DGE, L-glycero-1,5-epoxy-1αβ,6-dihydroxy-cis-hexa-3-en-2-one] as the compound, how does the “Effect on GST activity (in words)” value [1] read?
A: significant increase

Q: And the “GST activity (−fold)” value ([1]; final concentration 5 μM)?
A: 1.4 fold

Q: And the “GST activity (−fold)” value ([1]; final concentration 10 μM)?
A: 1.4 fold

Q: What about the “GST activity (−fold)” value ([1]; final concentration 20 μM) of the same compound?
A: 1.6 fold

Q: And the “Fatal cases after oral administration” value (mouse)?
A: no fatal case

Q: What about the “Cancer cell growth suppressing activity” value (HL-60 cell) of the same compound?
A: had a cancer cell growth suppressing activity
